Measurements from patent publication US20260274829A1, “NEW E3 UBIQUITIN LIGASE LIGAND, PROTEIN DEGRADATION AGENT AND USE THEREOF” (GLUETACS THERAPEUTICS (SHANGHAI) CO., LTD., priority 2023, published 2026).

Target: T1, human Cereblon WT GST-tagged protein (Homo sapiens, UniProt Q96SW2)
T1 construct: purchased CISBIO 64BDCRBNPEH
Assay: CRBN binding, HTRF CEREBLON BINDING kit
Conditions: CRBN binding, HTRF CEREBLON BINDING kit
Outline: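 HTRF competition in which test compounds displace a Thalidomide-Re tracer from GST-tagged human Cereblon WT, detected with a GST Eu antibody. Incubation lasted 3 hours at room temperature, with emission read at 620 and 665 nm. Inhibition rate was derived from 665/620 ratios relative to blank and solvent control wells.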

T1 sequence (Q96SW2 whole entry): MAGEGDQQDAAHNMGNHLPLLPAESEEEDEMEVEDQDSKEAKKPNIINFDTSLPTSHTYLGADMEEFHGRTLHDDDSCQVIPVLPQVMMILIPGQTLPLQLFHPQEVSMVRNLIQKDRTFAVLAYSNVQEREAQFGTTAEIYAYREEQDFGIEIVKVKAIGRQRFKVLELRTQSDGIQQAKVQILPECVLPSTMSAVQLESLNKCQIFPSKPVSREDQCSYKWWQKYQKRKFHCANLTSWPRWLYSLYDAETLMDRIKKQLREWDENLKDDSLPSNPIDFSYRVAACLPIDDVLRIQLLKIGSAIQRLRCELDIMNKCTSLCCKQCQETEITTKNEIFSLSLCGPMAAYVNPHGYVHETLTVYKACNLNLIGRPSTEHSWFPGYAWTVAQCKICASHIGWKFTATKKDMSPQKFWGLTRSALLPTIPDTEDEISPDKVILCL

Compound	IC50 [nM]
CCc1cc2c(cc1N1CCN(Cc3cccc(N4CCC(=O)NC4=O)c3)CC1)C(C)(C)c1[nH]c3cc(C#N)ccc3c1C2=O [GT-07325, 8-(4-(3-(2,4-dioxotetrahydropyrimidin-1(2H)-yl)benzyl)piperazin-1-yl)-9-ethyl-6,6-dimethyl-11-oxo-6,11-dihydro-5H-benzo[b]carbazole-3-carbonitrile]	500 to 1000
CC(C)(O)c1cc2nc(C3CCN(Cc4ccc(N5CCC(=O)NC5=O)cn4)CC3)oc2cc1NC(=O)c1cccc(C(F)(F)F)n1 [GT-05774, N-(2-(1-((5-(2,4-dioxotetrahydropyrimidin-1(2H)-yl)pyridin-2-yl)methyl)piperidin-4-yl)-5-(2-hydroxypropan-2-yl)benzo[d]oxazol-6-yl)-6-(trifluoromethyl)picolinamide]	1000 to 1900
O=C1CCN(c2cccc(CN3C[C@@H]4C[C@H]3CN4c3ccc(-c4cc(F)c5c(c4)C(=O)N(C(C(=O)Nc4nccs4)c4ncn6c4CCC6)C5)cc3)c2)C(=O)N1 (stereo partly drawn) [GT-05117, 2-(6,7-dihydro-5H-pyrrolo[1,2-c]imidazol-1-yl)-2-(6-(4-((1S,4S)-5-(3-(2,4-dioxotetrahydropyrimidin-1(2H)-yl)benzyl)-2,5-diazabicyclo[2.2.1]heptan-2-yl)phenyl)-4-fluoro-1-oxoisoindolin-2-yl)-N-(thiazol-2-yl)acetamide]	500 to 1000
CN1CCN([C@@H]2CCCN(c3cnc(C(N)=O)c(Nc4ccc(C5CCN(Cc6ccc(N7CCC(=O)NC7=O)cc6)CC5)cc4)n3)C2)C1=O [GT-04802, (R)-3-((4-(1-(4-(2,4-dioxotetrahydropyrimidin-1(2H)-yl)benzyl)piperidin-4-yl)phenyl)amino)-5-(3-(3-methyl-2-oxoimidazolidin-1-yl)piperidin-1-yl)pyrazine-2-carboxamide]	500 to 1000
Nc1nc(Nc2ccc(S(=O)(=O)N3CCN(Cc4ccc(N5CCC(=O)NC5=O)cc4)CC3)cc2)nn1C(=O)c1c(F)cccc1F [GT-06751, 1-(4-((4-((4-((5-amino-1-(2,6-difluorobenzoyl)-1H-1,2,4-triazol-3-yl)amino)phenyl)sulfonyl)piperazin-1-yl)methyl)phenyl)dihydropyrimidine-2,4(1H,3H)-dione]	1000 to 1900
O=C1CCN(c2cc(CN3C[C@H]4C[C@@H]3CN4c3ccc(-c4cc(F)c5c(c4)C(=O)N(C(C(=O)Nc4nccs4)c4ncn6c4CCC6)C5)cc3)ccn2)C(=O)N1 (stereo partly drawn) [GT-07387, 2-(6,7-dihydro-5H-pyrrolo[1,2-c]imidazol-1-yl)-2-(6-(4-((1R,4R)-5-((2-(2,4-dioxotetrahydropyrimidin-1(2H)-yl)pyridin-4-yl)methyl)-2,5-diazabicyclo[2.2.1]heptan-2-yl)phenyl)-4-fluoro-1-oxoisoindolin-2-yl)-N-(thiazol-2-yl)acetamide]	1000 to 1900
O=C1CCN(c2cncc(CN3CCN(c4ccc(-c5cc(F)c6c(c5)C(=O)N(C(C(=O)Nc5nccs5)c5ncn7c5CCC7)C6)cc4)CC3)c2)C(=O)N1 (centres unmarked) [GT-07380, 2-(6,7-dihydro-5H-pyrrolo[1,2-c]imidazol-1-yl)-2-(6-(4-(4-((5-(2,4-dioxotetrahydropyrimidin-1(2H)-yl)pyridin-3-yl)methyl)piperazin-1-yl)phenyl)-4-fluoro-1-oxoisoindolin-2-yl)-N-(thiazol-2-yl)acetamide]	< 500
CCc1cc2c(cc1N1CCC(N3CCN(Cc4cncc(C5CCC(=O)NC5=O)c4)CC3)CC1)C(C)(C)c1[nH]c3cc(C#N)ccc3c1C2=O (centres unmarked) [GT-07706, 8-(4-(4-((5-(2,6-dioxopiperidin-3-yl)pyridin-3-yl)methyl)piperazin-1-yl)piperidin-1-yl)-9-ethyl-6,6-dimethyl-11-oxo-6,11-dihydro-5H-benzo[b]carbazole-3-carbonitrile]	< 500
O=C1CCN(c2cccc(CN3CCC(N4CCN(c5ccc(-c6cc(F)c7c(c6)C(=O)N(C(C(=O)Nc6nccs6)c6ncn8c6CCC8)C7)cc5)CC4)CC3)c2)C(=O)N1 (centres unmarked) [GT-06328, 2-(6,7-dihydro-5H-pyrrolo[1,2-c]imidazol-1-yl)-2-(6-(4-(4-(1-(3-(2,4-dioxotetrahydropyrimidin-1(2H)-yl)benzyl)piperidin-4-yl)piperazin-1-yl)phenyl)-4-fluoro-1-oxoisoindolin-2-yl)-N-(thiazol-2-yl)acetamide]	500 to 1000
Cc1ccc(-c2c(C)noc2C)cc1N(CC1CCN(Cc2ccc(N3CCC(=O)NC3=O)c(F)c2)CC1)c1ccc(C2(C#N)CC2)cc1 [GT-04843, 1-(4-((5-(3,5-dimethylisoxazol-4-yl)-2-methylphenyl)((1-(4-(2,4-dioxotetrahydropyrimidin-1(2H)-yl)-3-fluorobenzyl)piperidin-4-yl)methyl)amino)phenyl)cyclopropane-1-carbonitrile]	1000 to 1900
O=C1CCN(c2ccc(CN3CCC(n4cc(NC(=O)c5cnn6ccc(N7CCOCC7)nc56)c(C(F)F)n4)CC3)nc2)C(=O)N1 [GT-05799, N-(3-(difluoromethyl)-1-(1-((5-(2,4-dioxotetrahydropyrimidin-1(2H)-yl)pyridin-2-yl)methyl)piperidin-4-yl)-1H-pyrazol-4-yl)-5-morpholinopyrazolo[1,5-a]pyrimidine-3-carboxamide]	< 500
COc1cc2nn(C3CCN(Cc4cccc(NC5CCC(=O)NC5=O)c4)CC3)cc2cc1NC(=O)c1cccc(C(F)(F)F)c1 (centres unmarked) [GT-04749, N-(2-(1-(3-((2,6-dioxopiperidin-3-yl)amino)benzyl)piperidin-4-yl)-6-methoxy-2H-indazol-5-yl)-3-(trifluoromethyl)benzamide]	1000 to 1900
COc1cc2nn(C3CCN(Cc4ccc(C5CCC(=O)NC5=O)cc4)CC3)cc2cc1NC(=O)c1cccc(C(F)(F)F)n1 (centres unmarked) [GT-04761, N-(2-(1-(4-(2,6-dioxopiperidin-3-yl)benzyl)piperidin-4-yl)-6-methoxy-2H-indazol-5-yl)-6-(trifluoromethyl)picolinamide]	500 to 1000
NC(=O)c1ncc(N2CCCCC2)nc1Nc1ccc(C2CCN(Cc3cccc(NC4CCC(=O)NC4=O)c3)CC2)cc1 (centres unmarked) [GT-04791, 3-((4-(1-(3-((2,6-dioxopiperidin-3-yl)amino)benzyl)piperidin-4-yl)phenyl)amino)-5-(piperidin-1-yl)pyrazine-2-carboxamide]	500 to 1000
O=C1CCN(c2cccc(CN3CCN(Cc4ccc5c(c4)nc(NC(=O)c4cccc(C(F)(F)F)c4)n5[C@H]4CC[C@@H](CO)CC4)CC3)c2)C(=O)N1 [GT-04977, N-(5-((4-(3-(2,4-dioxotetrahydropyrimidin-1(2H)-yl)benzyl)piperazin-1-yl)methyl)-1-((1s,4s)-4-(hydroxymethyl)cyclohexyl)-1H-benzo[d]imidazol-2-yl)-3-(trifluoromethyl)benzamide]	500 to 1000

Same assay, conditions: CRBN binding, HTRF; compound at 0.5 μM; read-out: Inhibition rate (%) at 0.5 μM

Compound	inhibition at 0.5 µM [%]
CC1(C)CCC(c2ccc(Cl)cc2)=C(CN2CCN(c3ccc(C(=O)NS(=O)(=O)c4ccc(N[C@H](CCN5CC6CCC(C5)N6Cc5ccc(C6CCC(=O)NC6=O)cc5)CSc5ccccc5)c(S(=O)(=O)C(F)(F)F)c4)cc3)CC2)C1 (stereo partly drawn) [GT-07858, 4-(4-((4′-chloro-4,4-dimethyl-3,4,5,6-tetrahydro-[1,1′-biphenyl]-2-yl)methyl)piperazin-1-yl)-N-((4-(((2R)-4-(8-(4-(2,6-dioxopiperidin-3-yl)benzyl)-3,8-diazabicyclo[3.2.1]octan-3-yl)-1-(phenylthio)butan-2-yl)amino)-3-((trifluoromethyl)sulfonyl)phenyl)sulfonyl)benzamide]	30 to 40

Same assay, conditions: CRBN binding, HTRF; compound at 2 μM; read-out: Inhibition rate (%) at 2 μM

Compound	inhibition at 2 µM [%]
CC1(C)CCC(c2ccc(Cl)cc2)=C(CN2CCN(c3ccc(C(=O)NS(=O)(=O)c4ccc(N[C@H](CCN5CC6CCC(C5)N6Cc5ccc(C6CCC(=O)NC6=O)cc5)CSc5ccccc5)c(S(=O)(=O)C(F)(F)F)c4)cc3)CC2)C1 (stereo partly drawn) [GT-07858, 4-(4-((4′-chloro-4,4-dimethyl-3,4,5,6-tetrahydro-[1,1′-biphenyl]-2-yl)methyl)piperazin-1-yl)-N-((4-(((2R)-4-(8-(4-(2,6-dioxopiperidin-3-yl)benzyl)-3,8-diazabicyclo[3.2.1]octan-3-yl)-1-(phenylthio)butan-2-yl)amino)-3-((trifluoromethyl)sulfonyl)phenyl)sulfonyl)benzamide]	60 to 80
